Results taken from patent US12668599B2, “Heterobifunctional compounds and methods of treating disease” (Halda Therapeutics OpCo, Inc., priority 2023, dated 2026).

Legend:
[1] = Stability analysis of Crystal Form A and Crystal Form B in solvent suspensions (XRPD); type: physicochemical
Description: The obtained suspensions were stirred at 25° C. and 50° C. for 1 week, respectively. Solid parts (wet cakes) were isolated by centrifugation filtration at […] temperature and investigated by XRPD.

VCaP cells = test: Cellular growth inhibition assay for VCaP cells (CellTiter-Glo 2.0, 72 hours); type: cell-based, human
VCaP cell tumors = test: Castrate VCaP tumor xenograft study, tumor growth; type: in vivo; settings: castrated CB17.SCID mice bearing VCaP tumors, oral gavage; same mg/kg dose and dosing frequency for Compound II-5 and Compound A, FIG. 8
Description: Compound II-5 was evaluated for in vivo performance when administered to CB17.SCID mice bearing VCaP cell tumors.
5M VCaP cells were subcutaneously implanted into CB17.SCID mice in 50% Matrigel (Corning). Mice were castrated under anesthesia once tumor volumes reached 100 mm^3. Tumors were then allowed to reach an average of approximately 150 mm^3 before randomization into efficacy arms. Tumors were measured twice weekly for Tumor Growth Inhibition (TGI) calculation. For PK/PD analysis, tumors were allowed to reach an average of 400 mm^3, before dosing the mice with test compound by oral gavage (n=5) for seven days. Mice were sacrificed 24 hours following the final dose, and tumors were harvested for downstream analysis. Plasma samples were collected from all dosed mice 2 hours following the final dose to determine test compound exposure by LC-MS/MS. Test compounds used in the experiment were (i) Compound II-5 and (ii) a commercially available nonsteroidal antiandrogen medication that has been approved by the United States Food and Drug Administration for treatment of prostate cancer (hereinafter “Compound A”).

[2] = target: T1, androgen receptor (AR) and bromodomain-containing protein 4 (BRD4) protein (Homo sapiens, UniProt O60885+P10275); test: Ternary complex formation in VCaP cells (AR capture antibody ELISA); type: cell-based; settings: FIG. 1
T1 construct: endogenous in cells; host or cells: VCaP cells
Description: Exemplary compounds were tested for ability to form a ternary complex containing a test compound, androgen receptor (AR), and bromodomain-containing protein 4 (BRD4) protein.
VCaP cells were cultured in ATCC DMEM medium supplemented with 10% ATCC fetal bovine serum, and 1% pen-strep (culture medium). 5000 cells were seeded in 100 μL of culture medium, per well in a clear 96-well poly-D-lysine coated plate. Plates were equilibrated to room temperature for 30 minutes. After equilibration, plates were incubated at 37° C. with 5% CO2 in a humidified tissue culture incubator. Black, opaque 96-well MaxiSorp plates were coated with 50 μL of a solution of androgen receptor antibody diluted in phosphate buffered saline (PBS). The coated plates were then quick-spun for 30 seconds before being sealed and placed in a fridge at 4° C. overnight. Test compounds were titrated in 100% DMSO the day before the experiment was performed and were left sealed in the dessicator overnight. QuantaRed™ Enhanced Chemifluorescent HRP Substrate Kit was taken out from 4° C. to warm up to room temperature. Plates coated with androgen receptor antibody were washed three times with 200 μL 1× Tris -Buffered Saline plus 0.1% Tween20 (TBST), then blocked with 200 μL 3% bovine serum albumin in TBST for approximately […] on a room temperature plate shaker at 500 rpm for 1 hour. […]

T1 sequence (P10275 whole entry, other chains not shown): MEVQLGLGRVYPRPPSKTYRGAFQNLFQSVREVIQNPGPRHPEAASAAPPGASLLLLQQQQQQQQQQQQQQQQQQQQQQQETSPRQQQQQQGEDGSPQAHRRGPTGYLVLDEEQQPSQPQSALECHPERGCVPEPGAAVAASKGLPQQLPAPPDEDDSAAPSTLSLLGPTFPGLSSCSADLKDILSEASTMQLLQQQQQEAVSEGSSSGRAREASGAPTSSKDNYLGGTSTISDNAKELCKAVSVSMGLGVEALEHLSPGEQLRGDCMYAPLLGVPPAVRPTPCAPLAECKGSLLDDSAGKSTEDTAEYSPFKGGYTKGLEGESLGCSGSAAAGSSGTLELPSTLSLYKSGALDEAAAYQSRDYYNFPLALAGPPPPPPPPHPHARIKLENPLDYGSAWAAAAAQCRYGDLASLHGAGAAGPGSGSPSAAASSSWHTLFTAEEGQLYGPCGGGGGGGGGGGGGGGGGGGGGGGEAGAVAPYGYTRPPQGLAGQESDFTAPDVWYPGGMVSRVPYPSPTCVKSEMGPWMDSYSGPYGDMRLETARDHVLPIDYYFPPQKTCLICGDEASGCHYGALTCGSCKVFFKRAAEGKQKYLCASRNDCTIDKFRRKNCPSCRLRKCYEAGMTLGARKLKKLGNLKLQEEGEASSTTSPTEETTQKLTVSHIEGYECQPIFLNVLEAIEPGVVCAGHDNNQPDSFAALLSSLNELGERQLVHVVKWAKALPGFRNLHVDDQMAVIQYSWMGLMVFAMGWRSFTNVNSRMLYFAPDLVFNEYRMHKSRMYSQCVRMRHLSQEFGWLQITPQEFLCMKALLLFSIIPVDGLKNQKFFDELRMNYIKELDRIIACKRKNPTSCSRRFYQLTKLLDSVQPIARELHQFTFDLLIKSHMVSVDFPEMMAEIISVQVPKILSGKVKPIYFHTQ

SMILES: COc1cc(O[C@H]2C(C)(C)[C@H](NC(=O)c3cnc(N4CCC5(CC4)CC(Oc4ccc(C6=N[C@@H](Cc7ncco7)c7nnc(C)n7-c7sc(C)c(C)c76)cc4)C5)nc3)C2(C)C)ccc1C#N [II-5, N-[(1r,3r)-3-(4-cyano-3-methoxy-phenoxy)-2,2,4,4-tetramethyl-cyclobutyl]-2-[2-[4-[(9S)-4,5,13-trimethyl-9-(oxazol-2-ylmethyl)-3-thia-1,8,11,12-tetrazatricyclo[8.3.0.0^2,6]trideca-2 (6),4,7,10,12-pentaen-7-yl]phenoxy]-7-azaspiro[3.5]nonan-7-yl]pyrimidine-5-carboxamide]
- XRPD form after suspension ([1]; about 3 mg Crystal Form A + 3 mg Crystal Form B in saturated Acetone solution, 25° C. for 1 week): Crystal Form A
- XRPD form after suspension ([1]; about 3 mg Crystal Form A + 3 mg Crystal Form B in saturated Acetone solution, 50° C. for 1 week): Crystal Form A
- XRPD form after suspension ([1]; about 3 mg Crystal Form A + 3 mg Crystal Form B in saturated Acetonitrile solution, 25° C. for 1 week): Crystal Form A
- XRPD form after suspension ([1]; about 3 mg Crystal Form A + 3 mg Crystal Form B in saturated Acetonitrile solution, 50° C. for 1 week): Crystal Form A
- XRPD form after suspension ([1]; about 3 mg Crystal Form A + 3 mg Crystal Form B in saturated EtOH solution, 25° C. for 1 week): Crystal Form A
- XRPD form after suspension ([1]; about 3 mg Crystal Form A + 3 mg Crystal Form B in saturated EtOH solution, 50° C. for 1 week): Crystal Form A
- XRPD form after suspension ([1]; about 3 mg Crystal Form A + 3 mg Crystal Form B in saturated THF/Heptane (1/1, v/v) solution, 25° C. for 1 week): Crystal Form A
- XRPD form after suspension ([1]; about 3 mg Crystal Form A + 3 mg Crystal Form B in saturated THF/Heptane (1/1, v/v) solution, 50° C. for 1 week): Crystal Form A
- Ratio of GI50's (VCaP cells; GI50 of the top compound in the pair divided by GI50 of the lower compound): 1
- GI50 (VCaP cells; Homo sapiens, VCaP, 72 h, CellTiter-Glo 2.0): < 500 nM
- tumor growth inhibition (tumor volume) (VCaP cell tumors): more effective in reducing tumor growth in this experiment than Compound A
- ternary complex formation between test compound, androgen receptor, and BRD4 [2]: detected
